Test results reported in patent US10322131B2, “Hydroxyacid derivatives, a process for their preparation and pharmaceutical compositions containing them” (LES LABORATOIRES SERVIER, priority 2015, dated 2019).
Structures can show the parent of a compound that is named as a salt.

Experiments:
[1] = tested on: H929 cells; assay: In vitro cytotoxicity (MTT) on H929 multiple myeloma tumour line; assay type: cell-based; conditions: Microculture Tetrazolium Assay
Method: The cytotoxicity studies were carried out on the H929 multiple myeloma tumour line.
The cells are distributed onto microplates and exposed to the test compounds for 48 hours.
The cell viability is then quantified by a colorimetric assay, the Microculture Tetrazolium Assay (Cancer Res., 1987, 47, 939-942).

[2] = biological target: Mcl-1 protein (Homo sapiens, UniProt Q07820); assay: Inhibition of Mcl-1 by the fluorescence polarisation technique; assay type: binding; conditions: fluorescence polarisation test; Fluorescein labelled ligand 1 nM, Mcl-1 protein 5 nM, ~2 hours at r.t.; read-out: IC50 (M) Mcl-1 FP
Mcl-1 protein, sequence (Q07820 whole entry): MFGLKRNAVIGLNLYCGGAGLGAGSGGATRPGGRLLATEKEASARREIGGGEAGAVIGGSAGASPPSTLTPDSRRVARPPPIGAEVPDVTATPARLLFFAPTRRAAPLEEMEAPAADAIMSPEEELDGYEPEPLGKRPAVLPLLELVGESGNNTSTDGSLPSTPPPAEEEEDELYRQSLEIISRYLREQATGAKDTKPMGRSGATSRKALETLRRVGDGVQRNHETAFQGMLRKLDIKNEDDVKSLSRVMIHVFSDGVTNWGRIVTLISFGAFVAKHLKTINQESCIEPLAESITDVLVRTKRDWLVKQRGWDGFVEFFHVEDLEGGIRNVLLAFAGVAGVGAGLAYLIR
Method in brief: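 Competitive FP displacement of fluorescein-labelled peptide ligand (1 nM final) from Mcl-1 (5 nM final) in HEPES 10 mM, 150 mM NaCl, 0.05% Tween 20, pH 7.4, 5% DMSO final. Read after ~2 h at r.t.; IC50 from 11-point 4-parameter logistic fit of % mP reduction.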

[3] = Homo sapiens, NCI-H929, exposed 48 hours

Compound	IC50 [1, 3]	IC50 [2]	IC50 ([1]; exposed 48 hours)
Cc1c(-c2c(-c3ccc(F)cc3)sc3ncnc(OC(Cc4ccccc4OCc4ccnc(-c5cccc(OCCOCCO)c5)n4)C(=O)O)c23)ccc(OCCN2CCN(C)CC2)c1Cl [Example 39, (2R)-2-{[(5Sa)-5-{3-chloro-2-methyl-4-[2-(4-methylpiperazin-1-yl)ethoxy]phenyl}-6-(4-fluorophenyl)thieno[2,3-d]pyrimidin-4-yl]oxy}-3-{2-[(2-{3-[2-(2-hydroxyethoxy)ethoxy]phenyl}pyrimidin-4-yl)methoxy]phenyl}propanoic acid]	3.25 nM	3.05e-09 M	
COCCOCCOc1cccc(-c2nccc(COc3ccccc3CC(Oc3ncnc4sc(-c5ccc(F)cc5)c(-c5ccc(OCCN6CCN(C)CC6)c(Cl)c5C)c34)C(=O)O)n2)c1 [Example 40, (2R)-2-{[(5Sa)-5-{3-chloro-2-methyl-4-[2-(4-methylpiperazin-1-yl)ethoxy]phenyl}-6-(4-fluorophenyl)thieno[2,3-d]pyrimidin-4-yl]oxy}-3-{2-[(2-{3-[2-(2-methoxyethoxy)ethoxy]phenyl}pyrimidin-4-yl)methoxy]phenyl}propanoic acid]	6.15 nM	3.75e-09 M	
Cc1c(-c2c(-c3ccc(F)cc3)sc3ncnc(OC(Cc4ccccc4OCc4ccnc(-c5cccc(COC(=O)NCCN6CCN(C)CC6)c5)n4)C(=O)O)c23)ccc(OCCN2CCN(C)CC2)c1Cl [Example 41, (2R)-2-{[(5Sa)-5-{3-chloro-2-methyl-4-[2-(4-methylpiperazin-1-yl)ethoxy]phenyl}-6-(4-fluorophenyl)thieno[2,3-d]pyrimidin-4-yl]oxy}-3-{2-[(2-{3-[({[2-(4-methylpiperazin-1-yl)ethyl]carbamoyl}oxy)methyl]phenyl}pyrimidin-4-yl)methoxy]phenyl}propanoic acid]	90.8 nM	3.45e-09 M	
Cc1c(-c2c(-c3ccc(F)cc3)sc3ncnc(OC(Cc4ccccc4OCc4ccnc(-c5cccc(COC(=O)NCCN6CCOCC6)c5)n4)C(=O)O)c23)ccc(OCCN2CCN(C)CC2)c1Cl [Example 42, (2R)-2-{[(5Sa)-5-{3-chloro-2-methyl-4-[2-(4-methylpiperazin-1-yl)ethoxy]phenyl}-6-(4-fluorophenyl)thieno[2,3-d]pyrimidin-4-yl]oxy}-3-{2-[(2-{3-[({[2-(morpholin-4-yl)ethyl]carbamoyl}oxy)methyl]phenyl}pyrimidin-4-yl)methoxy]phenyl}propanoic acid]	44.5 nM	4.45e-09 M	
Cc1c(-c2c(-c3ccc(F)cc3)sc3ncnc(OC(Cc4ccccc4OCc4ccnc(-c5cccc(COC(=O)NCCN(C)C)c5)n4)C(=O)O)c23)ccc(OCCN2CCN(C)CC2)c1Cl [Example 43, (2R)-2-{[(5Sa)-5-{3-chloro-2-methyl-4-[2-(4-methylpiperazin-1-yl)ethoxy]phenyl}-6-(4-fluorophenyl)thieno[2,3-d]pyrimidin-4-yl]oxy}-3-{2-[(2-{3-[({[2-(dimethylamino)ethyl]carbamoyl}oxy)methyl]phenyl}pyrimidin-4-yl)methoxy]phenyl}propanoic acid]	31.1 nM	4.55e-09 M	
Cc1c(-c2c(-c3ccc(F)cc3)sc3ncnc(OC(Cc4ccccc4OCc4ccnc(-c5cccc(COC(=O)NCCN6CCCC6)c5)n4)C(=O)O)c23)ccc(OCCN2CCN(C)CC2)c1Cl [Example 44, (2R)-2-{[(5Sa)-5-{3-chloro-2-methyl-4-[2-(4-methylpiperazin-1-yl)ethoxy]phenyl}-6-(4-fluorophenyl)thieno[2,3-d]pyrimidin-4-yl]oxy}-3-{2-[(2-{3-[({[2-(pyrrolidin-1-yl)ethyl]carbamoyl}oxy)methyl]phenyl}pyrimidin-4-yl)methoxy]phenyl}propanoic acid]	28.7 nM	3.7e-09 M	
COCCN(CCOC)C(=O)OCc1cccc(-c2nccc(COc3ccccc3CC(Oc3ncnc4sc(-c5ccc(F)cc5)c(-c5ccc(OCCN6CCN(C)CC6)c(Cl)c5C)c34)C(=O)O)n2)c1 [Example 45, (2R)-3-[2-({2-[3-({[bis(2-methoxyethyl)carbamoyl]oxy}methyl)phenyl]pyrimidin-4-yl}methoxy)phenyl]-2-{[(5Sa)-5-{3-chloro-2-methyl-4-[2-(4-methylpiperazin-1-yl)ethoxy]phenyl}-6-(4-fluorophenyl)thieno[2,3-d]pyrimidin-4-yl]oxy}propanoic acid]	4.58 nM	3.2e-09 M	
Cc1c(-c2c(-c3ccc(F)cc3)sc3ncnc(OC(Cc4ccccc4OCc4ccnc(-c5cccc(COC(=O)N6CCOCCOCCOCCOCCOCC6)c5)n4)C(=O)O)c23)ccc(OCCN2CCN(C)CC2)c1Cl [Example 46, (2R)-2-{[(5Sa)-5-{3-chloro-2-methyl-4-[2-(4-methylpiperazin-1-yl)ethoxy]phenyl}-6-(4-fluorophenyl)thieno[2,3-d]pyrimidin-4-yl]oxy}-3-(2-{[2-(3-{[(1,4,7,10,13-pentaoxa-16-azacyclooctadecan-16-ylcarbonyl)oxy]methyl}phenyl)pyrimidin-4-yl]methoxy}phenyl)propanoic acid]	23.4 nM	2.55e-09 M	
Cc1c(-c2c(-c3ccc(F)cc3)sc3ncnc(OC(Cc4ccccc4OCc4ccnc(-c5cccc(OCC(O)CO)c5)n4)C(=O)O)c23)ccc(OCCN2CCN(C)CC2)c1Cl [Example 47, (2R)-2-{[(5Sa)-5-{3-chloro-2-methyl-4-[2-(4-methylpiperazin-1-yl)ethoxy]phenyl}-6-(4-fluorophenyl)thieno[2,3-d]pyrimidin-4-yl]oxy}-3-[2-({2-[3-(2,3-dihydroxypropoxy)phenyl]pyrimidin-4-yl}methoxy)phenyl]propanoic acid]	18.2 nM	4.05e-09 M	
Cc1c(-c2c(-c3ccc(F)cc3)sc3ncnc(OC(Cc4ccccc4OCc4ccnc(-c5ccc(OP(=O)(O)O)cc5)n4)C(=O)O)c23)ccc(OCCN2CCN(C)CC2)c1Cl [Example 57, 4-[4-({2-[(2R)-2-carboxy-2-{[(5Sa)-5-{3-chloro-2-methyl-4-[2-(4-methylpiperazin-1 yl)ethoxy]phenyl}-6-(4-fluorophehnyl)thieno[2,3-d]pyrimidin-4-yl]oxy}ethyl]phenoxy}methyl)pyrimidin-2-yl]phenyl phosphate disodium salt]		4.6e-09 M	22.7 nM
